Source: US6806257B1, “Flavones as inducible nitric oxide synthase inhibitors, cyclooxygenase-2 inhibitors and potassium channel activators” (priority 1999, dated 2004)

Tests used:
[1] = tested on: porcine cerebral arteries; assay: In vitro tissue bath vasorelaxation of precontracted porcine cerebral arteries; settings: for relaxation of cerebral arteries: concentrations as high as 100 μM, n=4
NF-kB (p65) / IkB = assay: Nuclear p65 / cytosolic IkB western blot in LPS-treated RAW264.7 macrophages; format: cell-based, mouse; settings: 20 μg/ml, 100 ng/ml LPS for 30 minutes
Description: (§1) Western blots. Total cellular extract, cytosolic fractions (for IkB) and nuclear fraction (for p65 antibody) were prepared according to Muller et al., Immunobiology, 187, 233-256, 1993 and separated on sodium dodecyl sulfatepolyacrylamide minigels (8% for iNOS or COX-2, and 10% for IkB or p65) and transferred to immobilon polyvinylidene difluoride membranes (Millipore, Bedford, Mass.). The membrane was incubated overnight at 4° C. with 1% bovine serum albumin and then incubated with anti-iNos, COX-2, α-Tubulin monoclonal antibodies (Transduction Laboratories, Lexington, Ky.), anti-IkB or anti-p65 polyclonal antibodies (Santa Cruz Biochemicals, Santa Cruz, Calif.). iNOS, IkB, p65, Cox-2, α-Tubulin were detected by NBT and BCIP staining (Sigma Chemical Co., St. Louis, Mo.).
NF-kB is a transcription factor that is activated in response to stimulation by LPS, and activation of NF-kB is an essential factor in inducing iNOS gene expression in macrophages (Kim, Y. M., Biochem. Biophys. Res. Commun. 236, 655-660, 1997). To assess the effect of these compounds (20 μg/ml) on early stage of iNOS gene expression, the activation of NF-kB in RAW264.7 macrophages was examined using the electrophoretic mobility shift assay (EMSA) (FIGS. 6i and 6ii).

[2] = tested on: LPS-induced NO production in RAW264.7 macrophages; assay: LPS-induced nitrite (NO) production in RAW264.7 macrophages, Griess reaction; format: cell-based, mouse; settings: for NO: 24 hours
Description: (§2) Cells. RAW264.7, a mouse macrophage cell line, was obtained from American Type Culture Collection. Cells were cultured in RPMI-1640 medium (available from Gibco Life Technology, in Gaithersburg, Md.) supplemented with 2 mM L-glutamine, antibiotics (100 units/ml penicillin-A and 100 units/ml streptomycin) and 10% heat-inactivated fetal bovine serum (Gibco/BRL) and maintained at 37° C in a humidified incubator containing 5% CO2.
Nitrite assay. The nitrite concentration in the medium was measured as an indicator of NO production according to the Griess reaction (Kim et al., J. Immunol. 153: 4741-4748). One hundred microliters of each supernatant was. mixed with the same volume of Griess reagent (1% sulfanilamide in 5% phosphoric acid and 0. 1% naphthylethylenediamine dihydrochloride in water); absorbency of the mixture at 550 nm was determined with an enzyme-linked immunosorbent assay plate reader (Dynatech MR-7000; Dynatech Labs, Chantilly, Va.).
The effects of flavonoids, ellagitannins, anthraquinones on LPS-induced NO production in macrophages were studied as follows. The chemical structures of two flavonoids (myricitrin, N1; oroxylin A, N2) four ellagitannins (penta-O-galloyl-β-glucopyranose, N3; woodfordin C, N4; onothein B, N5; cuphiin, N6), and two anthraquinones (emodin, N7; physcion, N8) that were used in the present study were shown in FIG. 1. The effects of these eight compounds on NO production in RAW264.7 macrophages were investigated. The accumulated nitrite in the culture medium was used as an index for NO synthesis from these cells. […]

iNOS [3] = assay: LPS-induced iNOS expression in RAW264.7 macrophages (western/northern blot); format: cell-based, mouse; settings: for increased expression of iNOS in NLA or L-NAME plus LPS treated cells: NLA (or L-NAME) plus LPS co-treated
Description: as §2, §1
Northern blot analysis. Total RNA (20 μg/lane) were separated by electrophoresis on 1.2% agarose gel containing 6.7% formaldehyde and transformed to a Hybond-N nylon membrane (American Life Science) in 20×standard saline citrate (3 M sodium chloride and 0.3 M sodium citrate, pH 7.0). After heating at 80° C. for 2 hours and prehybridization for 4 hours, the filters were hybridized with ^32P-labeled murine iNOS cDNA probes at a concentration of 3×10^6 cpm/ml for 16-18 hours at 42° C. The probe was labeled with [α-32P] dCTP by using Random Primer labeling kit (Stratagene, La Jolla, Calif.). Then, the filters were washed, dried and autoradiographed with Kodak-X-Omat XAR-film using intensifying screens at −80° C.

iNOS [4] = assay: Indirect iNOS enzyme assay: NO in medium of LPS-pretreated intact RAW 264.7 cells; format: cell-based, mouse
[5] = tested on: LPS-induced PGE2 production in RAW 264.7 macrophages; assay: LPS-induced PGE2 production in RAW 264.7 macrophages (co-treatment); format: cell-based, mouse; settings: for PGE2: 24 hours
Description: Un-stimulated RAW 264.7 macrophages in culture medium for 24 hours produced basal amount of PGE2 (1.5 ng/mL) in the medium.

iNOS [6] = assay: LPS-induced nitrite production and iNOS expression in Bcl-2-overexpressed RAW264.7 cells; format: cell-based, mouse; settings: 20 μg/ml, LPS 100 ng/ml, Bcl-2/RAW-1 and Bcl-2/RAW-2 cells
RAW264.7 cells = settings: mouse, 20 μg/ml
COX-2 [7] = assay: LPS-induced COX-2 expression in RAW264.7 macrophages (western/northern blot); format: cell-based, mouse
Description: as §2, §1

iNOS [8] = assay: Direct iNOS enzyme activity assay in RAW 264.7 cell lysates; format: biochemical, mouse
COX-2 [9] = assay: COX-2 enzyme activity: PGE2 from added arachidonic acid in LPS-treated RAW 264.7 cells; format: cell-based, mouse; settings: for PGE2: then arachidonic acid (100 μM) 15 min
[10] = LPS + L-NAME (2 mM) + compound 40 μM
[11] = LPS + NLA (2 mM) + compound 40 μM
[12] = different concentrations together with LPS for 24 hours
[13] = 20 μM added for 12 hours after LPS (100 ng/ml) 12 hours pretreatment
[14] = 40 μM added for 12 hours after LPS (100 ng/ml) 12 hours pretreatment

With `Nc1ccncc1` [4-aminopyridine, reference compound] the “effect of the blocker/inhibitor on oroxylin A-induced relaxation” value ([1]; arteries without endothelial cells, U-46619) was “significantly inhibited”.

With oenothein B the “LPS-induced increase of nuclear p65 and decrease of cytosolic IkB” value (NF-kB (p65) / IkB) was “significantly inhibited”.

cuphiin D1 was tested, and the “LPS-induced increase of nuclear p65 and decrease of cytosolic IkB” value (NF-kB (p65) / IkB) was “did not block”.

`COc1c(O)cc(O)c2c(=O)cc(-c3ccccc3)oc12` [wogonin, 5,7-dihydroxy-8-methoxy flavone] was tested, and the NO [2, 10] was 6.8 ± 0.5 μmole/4 × 10^5, the NO [2, 11] was 6.7 ± 0.7 μmole/4 × 10^5 and the LPS-induced nitrite production [2, 12] was “significant concentration-dependent inhibition”. For the same compound, the “increased expression of iNOS in NLA or L-NAME plus LPS treated cells” value (iNOS [3]) was “inhibited”, the NO in medium (iNOS [4]; [13]) was 16.5 ± 0.3 μM/6 × 10^5 cells and the NO in medium (iNOS [4]; [14]) was 16.3 ± 0.3 μM/6 × 10^5 cells. The PGE2 [5, 10] was 2.3 ± 0.7 ng/mL, the PGE2 [5, 11] was 2.1 ± 0.4 ng/mL and the “LPS-induced PGE2 production” value ([5]; co-treatment 20 and 40 μM, LPS (100 ng/mL) 24 hours) was “inhibited”.

In the case of `O=C(O[C@@H]1Cc2c(O)cc(O)cc2O[C@@H]1c1cc(O)c(O)c(O)c1)c1cc(O)c(O)c(O)c1` [epigallocatechin gallate, reference compound], the “relaxation of cerebral arteries” value [1] is reported as “very small relaxation or no response”.

In the case of `Cc1cc(O)c2c(c1)C(=O)c1cc(O)cc(O)c1C2=O` [emodin, Emodin, reference compound], the LPS-induced nitrite production ([2]; 5, 10 or 20 μg/ml together with 100 ng/ml LPS for 24 hours) is reported as “significant inhibition”, the “blocking LPS-induced iNOS gene expression, comparison among compounds tested” value (iNOS [3]) is reported as “potent inhibitory effect, comparable to oroxylin A” and the “LPS-induced iNOS protein” value (iNOS [3]; 100 ng/ml LPS, western blot) is reported as “inhibited LPS-induced iNOS protein in a concentration-dependent manner”. The “LPS-induced increase of nuclear p65 and decrease of cytosolic IkB” value (NF-kB (p65) / IkB) was “did not block”, the “LPS-induced iNOS gene expression” value (iNOS [6]) was “inhibited” and the LPS-induced nitrite production (iNOS [6]) was “inhibited”. For the same compound, the “relaxation of cerebral arteries” value [1] was “very small relaxation or no response” and the “cytotoxity by MTT assay” value (RAW264.7 cells) was roughly 30%.

`O=C(O)[C@H]1O[C@@H](Oc2cc3oc(-c4ccccc4)cc(=O)c3c(O)c2O)[C@H](O)[C@@H](O)[C@@H]1O` [baicalin] showed an NO [2, 10] of 8.5 ± 0.9 μmole/4 × 10^5, an NO [2, 11] of 7.1 ± 0.3 μmole/4 × 10^5 and an IC50 ([2]; Mus musculus, RAW264.7, together with LPS (100 μg/mL) for 24 hours, n=3, read-out: IC50 in inhibiting LPS-induced NO production) of 15 ± 1.4 µM. For the same compound, the LPS-induced nitrite production [2, 12] was “significant concentration-dependent inhibition”, the “increased expression of iNOS in NLA or L-NAME plus LPS treated cells” value (iNOS [3]) was “inhibited” and the “LPS-induced COX-2 protein” value (COX-2 [7]; 20, 40 μM with LPS (100 ng/mL) for 24 hours) was “did not inhibit”. For the same compound, the “basal COX-2 expression, compound alone” value (COX-2 [7]; no LPS) was “did not affect”, the NO in medium (iNOS [4]; [13]) was 14.5 ± 0.5 μM/6 × 10^5 cells and the NO in medium (iNOS [4]; [14]) was 14.8 ± 1.5 μM/6 × 10^5 cells. The “iNOS enzyme activity in intact cells by nitrite production in the medium” value (iNOS [4]; added to cells pre-treated with LPS) was “did not affect”, the “direct effect on iNOS enzyme activity” value (iNOS [8]) was “did not directly affect” and the “iNOS specific activity: NO formation” value (iNOS [8]; 20 μM added to lysate of LPS (100 ng/mL, 12 hr)-treated cells) was 8.7 ± 1.0 μM/200 μg total protein. For the same compound, the “iNOS specific activity: NO formation” value (iNOS [8]; 40 μM added to lysate of LPS (100 ng/mL, 12 hr)-treated cells) was 9.0 ± 1.1 μM/200 μg total protein, the “iNOS specific activity: NO formation” value (iNOS [8]; lysates of LPS-pretreated cells incubated with 20 μM for 12 hours) was 8.7 ± 1.3 μM/200 μg protein and the “iNOS specific activity: NO formation” value (iNOS [8]; lysates of LPS-pretreated cells incubated with 40 μM for 12 hours) was 9.4 ± 2.1 μM/200 μg protein. For the same compound, the “NO production by direct enzyme activity assay, compound added to lysate (Table 3)” value (iNOS [8]; lysates of LPS-treated cells) was “did not inhibit”, the “direct effect on COX-2 enzyme activity” value (COX-2 [9]) was “did not directly affect” and the PGE2 (COX-2 [9]; 20 μM for 30 min after LPS 6 hours) was 6.1 ± 0.6 ng/mL. For the same compound, the PGE2 (COX-2 [9]; 40 μM for 30 min after LPS 6 hours) was 5.9 ± 0.4 ng/mL, the “PGE2 production using added arachidonic acid as a substrate” value (COX-2 [9]; added after COX-2 induction by LPS) was “no decrease” and the PGE2 [5, 10] was 6.1 ± 0.3 ng/mL. For the same compound, the PGE2 [5, 11] was 5.8 ± 1.1 ng/mL.
